Experimental data taken from US10611757B2, “Crystalline form of chemical compound, and preparation method, composition, and application thereof” (WUHAN LL SCIENCE AND TECHNOLOGY DEVELOPMENT CO., LTD., priority 2016, dated 2020).
Entries after “also recorded” stand apart in the source; their conditions may differ.

What was measured:
[1] = tested on: spontaneously hypertensive rats; assay: Antihypertensive efficacy test in spontaneously hypertensive rats (systolic blood pressure and heart rate by implanted sensor); assay type: in vivo, rat; conditions: SHR, 1 mg/kg; for Systolic blood pressure change / Heart rate change: average ± standard error; for Heart rate change: oral
Experimental: 12-week-old spontaneously hypertensive rats (hereinafter referred to as SHR, purchased from Beijing Weitong Lihua Experimental Animal Technology Co., Ltd.) were anesthetized with 2.5% sodium pentobarbital for intraperitoneal injection. After that, the blood pressure sensing catheter of hypertension implant was inserted into their abdominal aorta, while the implant was fixed to the abdominal wall, and then postoperative daily care was performed after suturing.
Rats with systolic blood pressure exceeding 160 mm Hg were divided into 3 groups (control group, compound (A) group and compound (B) group), wherein each group has 8 rats. The control group was administrated 0.5% sodium carboxymethyl cellulose (hereinafter referred to as CMC-Na); the compound (B) group and the compound (A) group were respectively administered the compound (B) and the compound (A), both of which were dissolved by 0.5% CMC-Na, by intragastric administration, at a dose of 1 mg/kg (calculated by the effective dose of valsartan) and a volume calculated by 4 mL/kg.
The systolic blood pressure and heart rate of SHR were compared before and after administration (the systolic blood pressure and heart rate of SHR before administration as reference value), which were detected three times at each time point with the average value recorded.

[2] = Competition test between crystalline forms at room temperature (ethyl acetate suspension, XRD); assay type: physicochemical; conditions: for stability under room temperature relative to the competing form: competition in ethyl acetate suspension
Experimental: Equivalent amounts of crystalline form I and crystalline form II samples were mixed well, added with 0.8 ml ethyl acetate to form a suspension, stirred overnight and detected by XRD.
Equivalent amounts of crystalline form II and form III samples were mixed well, added with 0.2 ml ethyl acetate to form a suspension, which was stirred overnight to obtain a crystalline form II determined by XRD detection.
Equivalent amounts of crystalline form I and form III samples were mixed uniformly, added with 0.2 ml ethyl acetate to form a suspension, which was stirred overnight, to obtain a crystalline form I determined by XRD detection.

[3] = Comparative stability of crystalline form III and IV on drying overnight at room temperature (XRD); assay type: physicochemical
Excerpt: The crystalline form III and the crystalline form IV samples were respectively dried overnight at room temperature.

[4] = Comparative stability test (total impurity content, 25° C., 60% relative humidity); assay type: physicochemical; conditions: for total impurity content: packed; for chemical stability relative to the amorphous form: total impurity content
Experimental: The stability of an amorphous form, the crystalline form I, a mixture of the crystalline form I and the crystal II, the crystal II, and the crystalline form III of the compound (A) was investigated. Specifically, the amorphous form, the crystalline form I, the mixture of the crystalline form I and the crystalline form II (weight ratio 1:2), the crystalline form II and the crystalline form III were taken 200 mg respectively to be investigated as follows:
Packing: Polyvinyl chloride (PVC) ziplock bag (the inner layer) was vacuumized, aluminum foil (the middle layer) was vacuumized, and aluminum foil desiccant (the outer layer) was vacuum and filled in with nitrogen;
Inspection conditions: 25° C., 60% relative humidity. The indicator was the total impurity content, which is determined by detection of samples three times at each time point with the average value recorded. The time points for sampling include 0, 1, 2, 3 and 6 months after packing.

[5] = Effects of tabletting processes on the crystalline form II (XRD); assay type: physicochemical; conditions: tableted under 20 kg and 25 kg pressure
Experimental: Tabletting method: 50 mg of the crystalline form II was tableted under 20 kg and 25 kg pressure by a single punching machine.
The XRD of the obtained sample powder was compared with the XRD of the crude sample, the results are shown in FIG. 8 (from top to bottom: the crude sample, the sample after 25 kg pressure tabletting and the sample after 20 kg pressure tabletting).

[6] = Influences of high temperature and high humidity on the crystalline form II (XRD); assay type: physicochemical; conditions: 10 days
Experimental: Two samples of 20 mg the crystalline form II were respectively placed at 60° C. (sealed and shielded from light) and 85% relative humidity (exposed in the air at room temperature and shielded from light), detected by XRD after 10 days and compared with XRD of the crude sample.

[7] = intragastric, 1 hour after administration
[8] = intragastric, 3 hours after administration
[9] = intragastric, 5 hours after administration
[10] = intragastric, 7 hours after administration
[11] = intragastric, 10 hours after administration
[12] = intragastric, 24 hours after administration
[13] = intragastric, before administration (reference value)
[14] = before administration (reference value)

CCOc1nc2cccc(C(=O)OC(C)OC(=O)OCc3nc(C)c(C)nc3C)c2n1Cc1ccc(-c2ccccc2-c2noc(=O)[n-]2)cc1.[K+] (stereo not shown) [Compound (A)]
effect of lowering heart rate compared with the compound (B) group [1]: more potent with longer-lasting effect of lowering heart rate
antihypertensive effect compared with the compound (B) group ([1]; intragastric): more potent with longer-lasting antihypertensive effect
Systolic blood pressure change [1, 7]: −7.0 ± 3.4 mmHg
Systolic blood pressure change [1, 8]: −34.3 ± 1.9 mmHg
Systolic blood pressure change [1, 9]: −46.5 ± 2.5 mmHg
Systolic blood pressure change [1, 10]: −49.4 ± 4.1 mmHg
Systolic blood pressure change [1, 11]: −45.3 ± 3.3 mmHg
Systolic blood pressure change [1, 12]: −25.9 ± 3.4 mmHg
Systolic blood pressure change [1, 13]: 0.0 ± 0.0 mmHg
Heart rate change ([1]; 1 hour after administration): −3.6 ± 2.4 times/minute
Heart rate change ([1]; 3 hours after administration): −5.0 ± 2.5 times/minute
Heart rate change ([1]; 5 hours after administration): −10.1 ± 3.0 times/minute
Heart rate change ([1]; 7 hours after administration): −17.5 ± 3.0 times/minute
Heart rate change ([1]; 10 hours after administration): −25.4 ± 2.4 times/minute
Heart rate change ([1]; 24 hours after administration): −28.6 ± 8 times/minute
Heart rate change [1, 14]: 0.0 ± 0.0 times/minute

CCOc1nc2cccc(C(=O)OC(C)OC(=O)OCc3nc(C)c(C)nc3C)c2n1Cc1ccc(-c2ccccc2-c2noc(=O)[nH]2)cc1 (stereo not shown) [Compound (B), reference compound]
Systolic blood pressure change [1, 7]: −4.9 ± 4.8 mmHg
Systolic blood pressure change [1, 8]: −22.0 ± 3.6 mmHg
Systolic blood pressure change [1, 9]: −30.5 ± 3.5 mmHg
Systolic blood pressure change [1, 10]: −38.8 ± 2.3 mmHg
Systolic blood pressure change [1, 11]: −33.0 ± 1.7 mmHg
Systolic blood pressure change [1, 12]: −10.2 ± 2.1 mmHg
Systolic blood pressure change [1, 13]: 0.0 ± 0.0 mmHg
Heart rate change ([1]; 1 hour after administration): −3.4 ± 2.6 times/minute
Heart rate change ([1]; 3 hours after administration): −2.33 ± 2.6 times/minute
Heart rate change ([1]; 5 hours after administration): −6.5 ± 2.8 times/minute
Heart rate change ([1]; 7 hours after administration): −6.2 ± 3.0 times/minute
Heart rate change ([1]; 10 hours after administration): −12.3 ± 2.8 times/minute
Heart rate change ([1]; 24 hours after administration): −6.7 ± 2.6 times/minute
Heart rate change [1, 14]: 0.0 ± 0.0 times/minute

CCOc1nc2cccc(C(=O)OC(C)OC(=O)OCc3nc(C)c(C)nc3C)c2n1Cc1ccc(-c2ccccc2-c2noc(=O)[n-]2)cc1.[K+] (stereo not shown) [crystalline form I]
stability under room temperature relative to the competing form [2]: better than that of the crystalline form III
content of crystalline form I in the obtained product ([2]; equivalent amounts of form I and form II, ethyl acetate suspension, stirred overnight, XRD): about 5%
stability at room temperature relative to crystalline form IV [3]: superior to that of the crystalline form IV
total impurity content ([4]; 0 months): 1.11%
total impurity content ([4]; 1 month): 1.62%
total impurity content ([4]; 2 months): 2.34%
total impurity content ([4]; 3 months): 2.49%
total impurity content ([4]; 6 months): 3.10%
chemical stability relative to the amorphous form [4]: better than the amorphous form

CCOc1nc2cccc(C(=O)OC(C)OC(=O)OCc3nc(C)c(C)nc3C)c2n1Cc1ccc(-c2ccccc2-c2noc(=O)[n-]2)cc1.[K+] (stereo not shown) [crystalline form III]
transformation of crystalline form in competition with form I ([2]; equivalent amounts of form I and form III, ethyl acetate suspension, stirred overnight, XRD): completely transformed into the crystalline form I
transformation of crystalline form in competition with form II ([2]; equivalent amounts of form II and form III, ethyl acetate suspension, stirred overnight, XRD): completely transformed into the crystalline form II
share converted to the crystalline form I ([3]; dried overnight at room temperature, XRD): no more than 30%
stability at room temperature relative to crystalline form IV [3]: superior to that of the crystalline form IV
total impurity content ([4]; 0 months): 1.56%
total impurity content ([4]; 1 month): 2.55%
total impurity content ([4]; 2 months): 2.98%
total impurity content ([4]; 3 months): 3.34%
total impurity content ([4]; 6 months): 3.76%
chemical stability relative to the amorphous form [4]: better than the amorphous form

CCOc1nc2cccc(C(=O)OC(C)OC(=O)OCc3nc(C)c(C)nc3C)c2n1Cc1ccc(-c2ccccc2-c2noc(=O)[n-]2)cc1.[K+] (stereo not shown) [crystalline form IV]
transformation of crystalline form on drying ([3]; dried at room temperature, XRD): converted to crystalline form I; also recorded: completely transformed into the crystalline form I

CCOc1nc2cccc(C(=O)OC(C)OC(=O)OCc3nc(C)c(C)nc3C)c2n1Cc1ccc(-c2ccccc2-c2noc(=O)[n-]2)cc1.[K+] (stereo not shown) [mixture of crystalline form I and II]
total impurity content ([4]; 0 months): 0.90%
total impurity content ([4]; 1 month): 1.58%
total impurity content ([4]; 2 months): 2.20%
total impurity content ([4]; 3 months): 2.40%
total impurity content ([4]; 6 months): 3.29%
chemical stability relative to the amorphous form [4]: better than the amorphous form

CCOc1nc2cccc(C(=O)OC(C)OC(=O)OCc3nc(C)c(C)nc3C)c2n1Cc1ccc(-c2ccccc2-c2noc(=O)[n-]2)cc1.[K+] (stereo not shown) [crystalline form II]
stability under room temperature relative to the competing form [2]: better than that of form I; also recorded: better than that of form III
stability at room temperature relative to crystalline form IV [3]: superior to that of the crystalline form IV
crystalline form after tabletting [5]: remains unchanged
crystalline form after high temperature ([6]; 60° C., sealed and shielded from light): remains unchanged
crystalline form after high humidity ([6]; 85% relative humidity, room temperature, shielded from light): remains unchanged
total impurity content ([4]; 0 months): 1.29%
total impurity content ([4]; 1 month): 1.43%
total impurity content ([4]; 2 months): 1.59%
total impurity content ([4]; 3 months): 1.82%
total impurity content ([4]; 6 months): 1.87%
chemical stability relative to the amorphous form [4]: better than the amorphous form
